Experimental findings from ChEMBL document CHEMBL1201862, “PubChem BioAssay data set” (2004) are described below.

What is called GI50 is the concentration giving 50% growth inhibition.

Several values for one entry are separate records, joined by “and”; a condition that tells them apart may be missing. Identical values can stand only once.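 Assay format: 96-well plates, 48-hour exposure. GI50 marks 50% less growth.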 Activity calls are given as the source filed them. Cut-off read from the data, not from the text of the source: active = GI50 up to about 1.1 µM and inactive = higher.

Among the test systems are ACHN; EKVX; 786-0; CCRF-CEM; PC-3; DU-145; MDA-MB-231; SNB-19; UACC-62; SK-MEL-28; SNB-75; RXF 393; MDA-MB-435; Hs-578T; COLO 205; HOP-92; HOP-62; OVCAR-3; UO-31; SK-OV-3.
Holding throughout (assay): DTP human tumour cell line panel, 48 h

Consider `O=C(NC1=C(Cl)C(=O)c2ccccc2C1=O)c1ccccc1`, for which the GI50 in the test on ACHN was 20.8 µM (inactive); in the test on EKVX it was > 100 µM (inactive); with 786-0, 45.4 µM (inactive); in the test on CCRF-CEM, 30.9 µM (inactive); in the test with PC-3, 24.9 µM (inactive); in the test on DU-145 it was 55.1 µM (inactive). Further, the GI50 in the test with MDA-MB-231 is 32.9 µM (inactive); in the test on SNB-19 it was 54.2 µM (inactive); with UACC-62, 24.1 µM (inactive); in the test on SK-MEL-28, 44.8 µM (inactive); in the test on SNB-75, 65 µM (inactive); with RXF 393, 18.9 µM (inactive). Besides, the GI50 with MDA-MB-435 is 18.9 µM (inactive); in the test with Hs-578T, 69 µM (inactive); with COLO 205 it was 15.5 µM (inactive); in the test on HOP-92 it was 24.9 µM (inactive); with HOP-62, 85.3 µM (inactive); in the test with OVCAR-3 it was 19.1 µM (inactive).
As for `COc1ccc(/N=N/C(=N/NC(=O)c2cc(Cl)ccc2C(=O)c2ccccc2)c2ccc(N(CCC#N)CCC#N)cc2C)cc1`, the GI50 is 25.6 µM (inactive) in the test on ACHN; 16.1 µM (inactive) in the test with EKVX; 18.5 µM (inactive) in the test on 786-0; 4.54 µM (inactive) in the test on CCRF-CEM; 11.4 µM (inactive) in the test on PC-3; 19.5 µM (inactive) in the test on DU-145. Further, the GI50 is 20.3 µM (inactive) in the test with UO-31; 15.1 µM (inactive) in the test with MDA-MB-231; 25.9 µM (inactive) in the test with SNB-19; 17.2 µM (inactive) with UACC-62; 25.8 µM (inactive) in the test on SK-MEL-28; 27.8 µM (inactive) with SNB-75. In addition, the GI50 was 3.8 µM (inactive) in the test with RXF 393; 27.6 µM (inactive) in the test on MDA-MB-435; 29.9 µM (inactive) with Hs-578T; 17.6 µM (inactive) in the test with COLO 205; 20.1 µM (inactive) in the test with HOP-62; 24.4 µM (inactive) in the test on SK-OV-3. In addition, in the test with OVCAR-3, the GI50 was 5.04 µM (inactive).
Turning to `COc1ccc(C(=O)c2cc(OC)c(OC)c(OC)c2)cc1OC`, the GI50 with ACHN is 9.25 µM (inactive); in the test with EKVX, > 100 µM (inactive); in the test with 786-0, 4.98 µM (inactive); in the test with CCRF-CEM, 4.37 µM (inactive); with PC-3 it was 3.86 µM (inactive); in the test on DU-145, 3.92 µM (inactive). Further, the GI50 in the test on UO-31 was 3.71 µM (inactive); with MDA-MB-231, 6.17 µM (inactive); in the test on SNB-19, 3.21 µM (inactive); with UACC-62, 4.57 µM (inactive); with SK-MEL-28 it was 5.94 µM (inactive); in the test on SNB-75, 4.04 µM (inactive). Besides, the GI50 in the test with RXF 393 is 2.36 µM (inactive); with MDA-MB-435, 0.436 µM (active); with Hs-578T it was 2.7 µM (inactive); in the test on COLO 205, 4.04 µM (inactive); with HOP-62, 4.57 µM (inactive); in the test on OVCAR-3 it was 3.71 µM (inactive).
`COc1ccc(-n2c(C)nc3ccc(NC4OCC(O)C(O)C4O)cc3c2=O)cc1` (stereo not drawn): the GI50 with ACHN was 61.4 µM (inactive) and 36.6 µM (inactive); in the test with EKVX it was > 100 µM (inactive); in the test with 786-0, 34 µM (inactive) and 30.5 µM (inactive); in the test with PC-3 it was > 100 µM (inactive); in the test on DU-145, > 100 µM (inactive); in the test with UO-31 it was > 100 µM (inactive). Further, the GI50 with MDA-MB-231 is > 100 µM (inactive); in the test on SNB-19, > 100 µM (inactive); with UACC-62 it was 39.4 µM (inactive) and 31.9 µM (inactive); in the test with SK-MEL-28, 21.8 µM (inactive) and 32.1 µM (inactive); in the test on SNB-75, > 100 µM (inactive); in the test with RXF 393 it was 22.7 µM (inactive) and 30.1 µM (inactive). For the same compound, the GI50 is > 100 µM (inactive) and 82.8 µM (inactive) in the test on MDA-MB-435; 51.8 µM (inactive) and 41.8 µM (inactive) with Hs-578T; 42.6 µM (inactive) and 83 µM (inactive) in the test with COLO 205; > 100 µM (inactive) in the test with HOP-62; > 100 µM (inactive) with OVCAR-3.
For the compound `O=C1C(Cl)=C(N2CCSCC2)C(=O)c2c(O)ccc(O)c21`, the GI50 in the test on ACHN was 0.424 µM (active); in the test on 786-0 it was 0.1 µM (active); in the test on PC-3 it was 0.1 µM (active); in the test with DU-145, 0.802 µM (active); in the test with UO-31, 0.569 µM (active); in the test with MDA-MB-231, 0.308 µM (active). Also, the GI50 in the test on UACC-62 was 0.525 µM (active); in the test on SK-MEL-28 it was 0.857 µM (active); in the test on SNB-75, 1 µM (active); with RXF 393, 0.243 µM (active); in the test with MDA-MB-435, 0.631 µM (active); with Hs-578T, 0.501 µM (active). For the same compound, the GI50 was 0.1 µM (active) in the test with COLO 205, 1.02 µM (active) in the test on HOP-92 and 0.581 µM (active) in the test on SK-OV-3.
As to `C/C(CC/C(C)=N/O)=N\O`, the GI50 in the test on ACHN, in the test with EKVX, in the test with 786-0, in the test with PC-3, with DU-145 and in the test on UO-31 was > 100 µM (inactive) in each case. Besides, the GI50 in the test on MDA-MB-231, in the test with SNB-19, in the test on UACC-62, in the test on SK-MEL-28, in the test with SNB-75 and in the test with RXF 393 was > 100 µM (inactive) each time. The GI50 in the test on MDA-MB-435, in the test on Hs-578T, in the test with COLO 205, in the test with HOP-62, in the test on SK-OV-3 and with OVCAR-3 was > 100 µM (inactive) each time.
With `COc1cc2c(cc1O)c(O)cc1c3cc(OC)c(OC)cc3c[n+](C)c21`, the GI50 in the test on ACHN was 56.6 µM (inactive); in the test on EKVX, > 100 µM (inactive); in the test with 786-0 it was 7.4 µM (inactive); in the test with CCRF-CEM, 1.37 µM (inactive); in the test on PC-3, > 78.2 µM (inactive); with DU-145 it was 7.52 µM (inactive). In addition, the GI50 is 53.5 µM (inactive) in the test on UO-31; 35.3 µM (inactive) with MDA-MB-231; 1.13 µM (inactive) with SNB-19; 4.34 µM (inactive) in the test with UACC-62; > 100 µM (inactive) in the test on SK-MEL-28; 35.2 µM (inactive) with SNB-75. The GI50 in the test with RXF 393 is > 67.5 µM (inactive); in the test with MDA-MB-435, 16.4 µM (inactive); with Hs-578T, 4.23 µM (inactive); in the test on COLO 205, > 43.3 µM (inactive); in the test with HOP-62, 34.1 µM (inactive); with SK-OV-3, > 100 µM (inactive). The GI50 with OVCAR-3 is 20.7 µM (inactive).
For `CC[C@]12C=CCN3CCC4(c5cc([C@@]6(C(=O)OC)CC7CN(CCc8c6[nH]c6ccccc86)CC6CCCCC67)c(OC)cc5N(C)C4[C@](O)(C(=O)OC)C1OC(C)=O)[C@@H]32` (stereo partly drawn), the GI50 in the test with ACHN is < 0.0146 µM (active); in the test with EKVX it was 0.743 µM (active); in the test with 786-0, < 0.01 µM (active); in the test with CCRF-CEM, < 0.01 µM (active); in the test with PC-3, < 0.01 µM (active); in the test with DU-145, < 0.01 µM (active). For the same compound, the GI50 was 0.157 µM (active) with UO-31; < 0.01 µM (active) in the test on MDA-MB-231; < 0.01 µM (active) with SNB-19; < 0.01 µM (active) in the test with UACC-62; < 0.01 µM (active) with SNB-75; < 0.01 µM (active) in the test with RXF 393. In addition, the GI50 in the test on MDA-MB-435, in the test with Hs-578T, in the test with COLO 205, in the test on HOP-92, with HOP-62 and in the test with SK-OV-3 was < 0.01 µM (active) each time. Moreover, the GI50 with OVCAR-3 is < 0.01 µM (active).
`CSc1c(C#N)c(O)n(-c2ccc(C)cc2)c(=O)c1C(C)=O`: the GI50 in the test on EKVX was > 100 µM (inactive); with 786-0, > 100 µM (inactive); with CCRF-CEM it was > 100 µM (inactive); in the test with PC-3, > 100 µM (inactive); in the test on DU-145, > 100 µM (inactive); in the test on UO-31, 88.7 µM (inactive). Also, the GI50 in the test on MDA-MB-231, in the test with SNB-19, in the test with UACC-62, with SK-MEL-28, with SNB-75 and in the test with RXF 393 was > 100 µM (inactive) throughout. Also, the GI50 in the test on MDA-MB-435, with Hs-578T, in the test with COLO 205, with SK-OV-3 and in the test with OVCAR-3 was > 100 µM (inactive) in each case.
Regarding `CNc1nc(C(N)=O)c(N)s1`, the GI50 in the test on ACHN, in the test on EKVX, with 786-0, with CCRF-CEM, in the test on PC-3 and in the test on DU-145 was > 100 µM (inactive) each time. In addition, the GI50 in the test with UO-31, in the test with MDA-MB-231, with SNB-19, with UACC-62, in the test on SK-MEL-28 and with RXF 393 was > 100 µM (inactive) in each case. The GI50 with MDA-MB-435, with Hs-578T, with COLO 205, in the test with HOP-92, in the test with HOP-62 and in the test on SK-OV-3 was > 100 µM (inactive) throughout. Besides, the GI50 in the test with OVCAR-3 was > 100 µM (inactive).
Turning to `Cc1ccc2nc3c(=O)[nH]c(=O)nc-3n(C)c2c1C`, the GI50 with ACHN, with EKVX, in the test on 786-0, with CCRF-CEM, with PC-3 and in the test on DU-145 was > 100 µM (inactive) throughout. Also, the GI50 in the test with UO-31, with MDA-MB-231, in the test on SNB-19, with UACC-62, in the test on SK-MEL-28 and with SNB-75 was > 100 µM (inactive) in each case. The GI50 was > 100 µM (inactive) in the test on RXF 393; > 100 µM (inactive) in the test on MDA-MB-435; 12.1 µM (inactive) with Hs-578T; > 100 µM (inactive) in the test with COLO 205; > 100 µM (inactive) with HOP-62; > 100 µM (inactive) with SK-OV-3. Besides, in the test with OVCAR-3, the GI50 is > 100 µM (inactive).
